Results published in PMC8050276, “Estradiol analogs attenuate autophagy, cell migration and invasion by direct and selective inhibition of TRPML1, independent of estrogen receptors” (Scientific Reports, 2021).

Tests used:
hTPC2L11A/L12A-RFP = molecular target: T1, hTPC2L11A/L12A-RFP (Homo sapiens, UniProt Q8NHX9, L11A/L12A); test: Fluo-4 Ca2+ assay, HEK293 stably expressing hTPC2L11A/L12A-RFP, activated with TPC2-A1-N or TPC2-A1-P; format: cell-based; details: activated by either TPC2-A1-P or TPC2-A1-N
T1 construct: expressed in transfected cells
T1 sequence (Q8NHX9 whole entry L11A/L12A): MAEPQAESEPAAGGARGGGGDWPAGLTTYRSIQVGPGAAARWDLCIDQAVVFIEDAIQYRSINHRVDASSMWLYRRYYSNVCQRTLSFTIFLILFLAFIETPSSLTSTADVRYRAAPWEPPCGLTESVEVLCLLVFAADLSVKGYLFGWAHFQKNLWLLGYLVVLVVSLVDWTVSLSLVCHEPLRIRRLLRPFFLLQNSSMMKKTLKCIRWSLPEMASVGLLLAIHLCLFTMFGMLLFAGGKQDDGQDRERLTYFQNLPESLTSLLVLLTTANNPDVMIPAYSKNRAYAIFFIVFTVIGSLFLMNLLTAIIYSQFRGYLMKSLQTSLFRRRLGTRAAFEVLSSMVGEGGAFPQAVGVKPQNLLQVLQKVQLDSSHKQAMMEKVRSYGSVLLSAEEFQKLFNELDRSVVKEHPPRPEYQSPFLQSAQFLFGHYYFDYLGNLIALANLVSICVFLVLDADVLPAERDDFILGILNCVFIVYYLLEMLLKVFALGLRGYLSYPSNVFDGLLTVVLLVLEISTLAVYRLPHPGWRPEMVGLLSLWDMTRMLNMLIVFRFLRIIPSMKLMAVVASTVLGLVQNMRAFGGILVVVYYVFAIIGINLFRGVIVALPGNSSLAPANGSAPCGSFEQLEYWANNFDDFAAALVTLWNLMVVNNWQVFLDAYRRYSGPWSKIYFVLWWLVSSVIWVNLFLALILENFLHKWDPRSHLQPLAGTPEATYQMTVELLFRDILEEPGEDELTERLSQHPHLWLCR

MDA-MB-231 cells [1] = test: Wound healing/migration scratch assay; format: cell-based, human; details: various concentrations, o/n
Protocol: Wound healing assay was performed using 12-well plates (Sarstedt) at full confluency. Cells were incubated overnight (serum-free), and a scratch was performed using a yellow pipet tip. Pictures were taken at 0 h and after over night (o/n) incubation using an inverted microscope (Leica DM IL LED) and using a microscope camera (Leica DFC 3000 G).

MDA-MB-231 cells [2] = test: Invasion assay, Matrigel-coated transwell chambers; format: cell-based, human; details: various concentrations, 4 h and o/n
Protocol: For invasion measurements transwell chambers in 24-well permeable support plates (Corning, #3421) were coated with Corning Matrigel basement membrane matrix (Corning, #354234) for 1.5 h. A total of 4 × 104 MDA-MB-231 WT and TRPML1 KO cells were seeded on top of the chambers in serum-free medium, and direct stimulation with EDME was performed. The lower compartment contained the chemotactic gradient, medium with 10% FBS. Cells were allowed to migrate for 4 h and o/n, and were then fixed and stained with crystal violet containing methanol. Non-invaded cells were removed with Q-tips and pictures were taken of the bottom side of the membrane using an inverted microscope (Olympus CKX41) and an Olympus SC50 camera (Olympus). The number of invaded cells was quantified using ImageJ 1.52a software.

COc1ccc2c(c1)CC[C@@H]1[C@@H]2CC[C@]2(C)[C@@H](O)CC[C@@H]12 [EDME, 17β-estradiol methyl ether]
IC50 at TPC2 (hTPC2L11A/L12A-RFP): no meaningful IC50s | migration of MDA-MB-231 cells (MDA-MB-231 cells [1]): reduced significantly | invasion of MDA-MB-231 cells (MDA-MB-231 cells [2]): significantly reduced
